From patent US5840740A, “Aminosterol compounds and a method of treating infection using the aminosterol compounds” (priority 1995, dated 1998)
In brackets after ≈: the same amount, converted by molar mass. Entries after “also recorded” stand apart in the source; their conditions may differ. Like-named read-outs stand apart in the source and are kept apart here.

Tests used:
Chemical stability = type: physicochemical
[1] = tested on: chick embryo vitelline capillaries; test: Chick embryo vitelline capillary regression assay; type: in vivo; parameters: key to vascular reactivity (capillary regression): +: Vascular reactivity; 0: No vascular reactivity; +/-: Equivocal reactivity; conditions: for vascular reactivity (capillary regression): 60 min; for Chick embryo diss. assay, Minimum Effective Concentration: Table II
Procedure: Using the chick embryo vitelline capillaries assay, compounds were tested for their ability to induce capillary regression. Each compound was applied in 0.1 ml of 15% Ficol 400 and PBS onto the embryo, and vascular regression was assessed after 60 minutes.
The 3-day chick embryo consists of an embryonic disc from which numerous vessels emerge and return, forming a "figure 8"-shaped structure--the embryo in the center with vascular loops extending outward over both poles. […] Following a lag period of around 15 minutes, the constriction of continuity between capillary and secondary vessels, generally on the "avenous" side, was observed. Continued pulsatile blood flow progressed, resulting in a "swelling" of the blind tube, followed by a pinching off of the remaining connection and formation of an enclosed vascular sac resembling a "blood island." This process progressed until only the largest vessels remained intact.

B16 melanoma = B16 melanoma growth in C57B mice; type: in vivo, mouse; conditions: squalamine 5 mg/kg/day; compound 1436 10 mg/kg/every 3 days
Procedure: The growth of B16 melanoma in C57B mice is dependent upon neovascularization.
Using the growth of B16 melanoma cells in C57B mice, a recognized model for the evaluation of inhibitors of angiogenesis on the growth of cancers, the effects of subcutaneous, intraperitoneal and oral administration of squalamine were evaluated.
In this model, there was observed little evidence of metastasis with or without treatment with chemotherapeutic agents.
Based on the idea that tumor growth involves both the clonal expansion of a malignant cell along with the development of a supporting vascular supply, a combination of compound 1436 with squalamine was tested to determine whether it would achieve a synergistic effect on solid tumor growth. This concept was evaluated in the B16 melanoma model.
Animals were implanted with B16 melanoma followed by treatment with compound 1436 or 1256 administered in a combined schedule or separately. […] Thus, a combination of these two compounds achieves a therapeutic benefit in tumors dependent on neovascularization that may prevent metastatic spread.

[2] = tested on: PHA-stimulated human lymphocytes; test: Inhibition of mitogen (PHA)-stimulated growth of human T-cells; type: cell-based; conditions: in words; 10 μg/ml
From the text: Results are tabulated below.

[3] = tested on: Human colon carcinoma HT29; test: Growth inhibition in vitro; type: cell-based; conditions: 10 μg/ml
From the text: (§1) As set forth in Table 7 below, all malignant tumors evaluated in tissue culture, endothelial cells and vascular smooth muscle cells were sensitive to inhibition. Thus, compound 1436 has application in the control of growth factor dependent proliferation of many types of tissue.

[4] = tested on: Human colon carcinoma SW948; test: Growth inhibition in vitro; type: cell-based; conditions: 10 μg/ml
From the text: as §1

[5] = tested on: Human coronary artery smooth muscle cells; test: Growth inhibition in vitro; type: cell-based; conditions: 10 μg/ml
From the text: as §1

Human melanoma WM 1617 = test: Growth inhibition in vitro; type: cell-based; conditions: 10 μg/ml
From the text: as §1

[6] = tested on: Human microvascular endothelial cells; test: Growth inhibition in vitro; type: cell-based; conditions: 10 μg/ml
From the text: as §1

[7] = tested on: Human ovarian carcinoma SKOV3; test: Growth inhibition in vitro; type: cell-based; conditions: 10 μg/ml
From the text: as §1

Lewis lung carcinoma = test: Growth inhibition in vitro; type: cell-based; conditions: 10 μg/ml
From the text: as §1

Murine B16 melanoma = test: Growth inhibition in vitro; type: cell-based; conditions: 10 μg/ml
From the text: as §1

Murine L1210 leukemia = test: Growth inhibition in vitro; type: cell-based; conditions: 10 μg/ml
From the text: as §1

[8] = tested on: bovine pulmonary endothelial cells; test: Growth inhibition in vitro; type: cell-based; conditions: 10 μg/ml
From the text: as §1

[9] = tested on: human umbilical venous endothelial cells; test: Growth inhibition in vitro; type: cell-based; conditions: 10 μg/ml
From the text: as §1

HIV = test: Inhibition of HIV replication (P-24 Elisa); type: cell-based; conditions: 7 days
[10] = Fasting blood glucose in mice; type: in vivo, mouse (male CD-1); conditions: i.v.; in words
Procedure: To study the effect of steroid administrator or the NHE responsible for secretion of insulin, several of the aminosterols from shark liver were administered to fasting mice. Male CD-1 mice were assigned to one of four treatment groups. Whole blood glucose was tested using glucometer (Lifescan Glucometer II and One Touch test strips). Statistical analysis was via one-way analysis of variance (ANOVA) followed by subsequent Bonferonni's t-test.

[11] = tested on: human coronary artery smooth muscle; test: Proliferation of human coronary artery smooth muscle in vitro; type: cell-based; conditions: in words (1436: about 11 μg/ml)
From the text: Aminosterols of the invention may also have utility in inhibiting the growth factor mediated proliferation of smooth muscle within the artery. Following coronary angioplasty, reocclusion commonly occurs, secondary to reparative proliferation of the vascular smooth muscle within the wall of the surgically manipulated blood vessel. This process generally takes place over the course of 7-10 days. To evaluate whether an agent could prevent the growth factor mediated proliferation of smooth muscle within the artery, compound 1436 was evaluated in vitro for its effect on the proliferation of human coronary artery smooth muscle. Results for compound 1436 are shown in FIG. 13, and those for squalamine are shown in FIG. 14, with FIG. 15 being a composite logarithmic plot.

[12] = Growth and weight gain in mice; type: in vivo, mouse (C57B)
Procedure: Animals were dosed QTD (i.p.) starting on Day 1. […] Animals receiving 5 mg/kg QTD experienced about a 50% reduction in growth, compared to untreated controls, while animals receiving 1 mg/kg QTD were affected by about 10%. […] They appeared very much like hypophysectamized animals might appear.

[13] = Arterial resistance / pressure in the rat; type: in vivo; conditions: 30 minutes; noradrenaline 40 μg
Procedure: A 200-g rat was catheterized in the right carotid artery, and the compound was introduced over a ten-second period to a total dosage of 5 mg/kg.
At that time, 40 μg of noradrenaline was introduced.

Xenopus laevis heart = test: Isolated frog heart beating ex vivo; conditions: 10 μg/ml, room temperature; about one hour without compound
Procedure: To determine if compound 1436 has such utility, the following experiment was performed. The heart of a juvenile Xenopus laevis frog was dissected from the living animal. The heart was placed into a Petri dish containing Krebs-Ringer buffer with adrenaline 50 μg/ml, and examined with the naked eye. At room temperature, the heart continued beating in a coordinated fashion (atrial beat followed by ventricular beat) for about one hour. In the presence of 10 μg/ml of compound 1436, spontaneous beating persisted up to 24 hours.

[14] = tested on: malignant tumors, endothelial cells and vascular smooth muscle cells; test: Inhibition of growth of a spectrum of cells; type: cell-based; conditions: in words
From the text: as §1

Xenopus tadpole = conditions: stage 59-60, 10 μg/ml; for pharmacological response in tadpole: in words
[15] = Hematological profile in L1210-inoculated mice; conditions: L1210 mice; cisplatin 8 mg/kg ip or compound 1436 10 mg/kg ip q4d
From the text: C57B mice were inoculated with L1210 lymphoblastic leukemia cells at an inoculum that causes leukemia in 100% of animals.

rabbit NHE3 = rabbit NHE3 (Oryctolagus cuniculus, UniProt P26432); conditions: 10 μg/ml, acid preloaded
Procedure: For cells not acid-preloaded, the actual internal pH value was monitored as a function of time following addition of squalamine, with the results depicted in FIG. 1B.
PS120 fibroblasts transfected with rabbit NHE3 were grown and acid preloaded by exposure to 40 mM NH4 C1 as described above in conjunction with FIGS. 1A and 1B. Internal cellular pH changes expressed as the rate of pH recovery as a function of restored extracellular sodium ion concentration following exposure to 10 μg/ml of the compound were assayed with the fluorescent dye BCECF-AM as described above.

S. aureus = test: Antibiotic activity (MIC); type: cell-based; conditions: Staphylococcus aureus
HM = HM MTT assay; type: cell-based; conditions: Table II, Minimum Effective Concentration

Sequence of rabbit NHE3 (P26432 30-832): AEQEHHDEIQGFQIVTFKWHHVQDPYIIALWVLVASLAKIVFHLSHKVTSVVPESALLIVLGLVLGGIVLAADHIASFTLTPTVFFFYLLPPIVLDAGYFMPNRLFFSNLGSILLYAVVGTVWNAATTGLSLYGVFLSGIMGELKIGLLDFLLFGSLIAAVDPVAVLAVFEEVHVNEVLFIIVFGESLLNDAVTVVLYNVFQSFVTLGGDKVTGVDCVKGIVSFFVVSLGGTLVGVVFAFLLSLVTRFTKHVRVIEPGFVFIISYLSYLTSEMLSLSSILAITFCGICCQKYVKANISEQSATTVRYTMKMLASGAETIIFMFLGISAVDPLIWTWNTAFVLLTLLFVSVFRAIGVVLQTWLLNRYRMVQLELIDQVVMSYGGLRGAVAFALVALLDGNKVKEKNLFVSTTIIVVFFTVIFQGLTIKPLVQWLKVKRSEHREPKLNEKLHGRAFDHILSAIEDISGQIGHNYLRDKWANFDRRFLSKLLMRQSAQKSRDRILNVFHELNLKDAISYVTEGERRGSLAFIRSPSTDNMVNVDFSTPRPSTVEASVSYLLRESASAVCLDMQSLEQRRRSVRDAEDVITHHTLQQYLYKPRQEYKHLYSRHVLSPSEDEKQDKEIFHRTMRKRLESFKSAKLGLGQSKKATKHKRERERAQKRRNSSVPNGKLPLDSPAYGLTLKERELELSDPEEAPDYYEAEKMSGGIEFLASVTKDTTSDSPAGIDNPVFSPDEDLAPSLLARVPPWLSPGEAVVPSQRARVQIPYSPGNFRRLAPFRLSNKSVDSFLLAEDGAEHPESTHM

CC(CCC(=O)C(C)(C)OS(=O)(=O)O)[C@H]1CCC2C3C(CC[C@@]21C)[C@@]1(C)CC[C@H](NCCCNCCCCN)C[C@@H]1C[C@H]3O (stereo partly drawn) [FX 1A]
stability in water (Chemical stability): undergo conversion to another molecule (FX 1B) rapidly in water

CC(C)[C@@H](CC[C@@H](C)[C@H]1CC[C@H]2[C@@H]3[C@H](O)C[C@H]4C[C@@H](NCCCNCCCCNCCCN)CC[C@]4(C)[C@H]3CC[C@]12C)OS(=O)(=O)O [Compound 1436]
vascular reactivity (capillary regression) ([1]; 0.001 μg applied): +/-
vascular reactivity (capillary regression) ([1]; 0.01 μg applied): +
vascular reactivity (capillary regression) ([1]; 0.1 μg applied): +
vascular reactivity (capillary regression) ([1]; 1 μg applied): +
vascular reactivity (capillary regression) ([1]; 10 μg applied): +
Chick embryo diss. assay, Minimum Effective Concentration [1]: 1 µg
effect on chick embryo vessels / blood ([1]; in words): causes vitelline capillary regression with about the same potency as squalamine
effect on B16 tumor volume, single agent and combination (B16 melanoma): no significant impact on tumor volume
inhibition of blast transformation [2]: inhibited blast transformation most potently
growth inhibition in vitro [3]: INHIBITED
growth inhibition in vitro [4]: INHIBITED
growth inhibition in vitro [5]: INHIBITED
growth inhibition in vitro (Human melanoma WM 1617): INHIBITED
growth inhibition in vitro [6]: INHIBITED
growth inhibition in vitro [7]: INHIBITED
growth inhibition in vitro (Lewis lung carcinoma): INHIBITED
growth inhibition in vitro (Murine B16 melanoma): INHIBITED
growth inhibition in vitro (Murine L1210 leukemia): INHIBITED
growth inhibition in vitro [8]: INHIBITED
growth inhibition in vitro [9]: INHIBITED
P-24 Elisa (HIV; 0.5 μM): 40561
P-24 Elisa (HIV; 1 μM): 7464
P-24 Elisa (HIV; 5 μM): 3426
P-24 Elisa (HIV; 10 μM): 421
P-24 Elisa (HIV; 20 μM): 9
hyperglycemia [10]: caused hyperglycemia in mice
growth suppression / viability of smooth muscle cells [11]: maintained in a quiescent state in the presence of this steroid at about 11 μg/ml without loss of viability; also recorded: suppress in vitro the growth of human coronary artery smooth muscle
effect on growth of mice ([12]; 1 mg/kg QTD i.p.): about 10%
reduction in growth of mice ([12]; 5 mg/kg QTD i.p.): ~50%
growth suppression in mice ([12]; 10 mg/kg QTD i.p., about 1 month): almost completely inhibited
clinical health of treated mice ([12]; QTD i.p.): all were active, normally proportioned, not-cachectic, and in excellent apparent clinical health
suppression of growth and weight gain ([12]; in words, QTD i.p.): suppresses both linear growth and weight gain in growing mice in a dose-dependent fashion; also recorded: suppresses the growth of mice in a dose-dependent fashion
duration / reversibility of arterial effect [13]: followed for 30 minutes, without significant change; also recorded: readily reversible by standard pharmacological practice
persistence of spontaneous beating (Xenopus laevis heart): up to 24 hours
growth inhibition of a broad spectrum of cells [14]: inhibit the growth of a very broad spectrum of cells
time to death (Xenopus tadpole): about 2 hours
pharmacological response in tadpole (Xenopus tadpole): Gradual reduction in overall activity. Heart beat remained strong, suggesting nervous system depression. Melanocytes over head and tail began to swell, first exhibiting visibly distinct nuclei, followed by rupture into fragments.
RBC, Early Time [15]: 4.8 10^6 /mm^3
RBC, Late Time [15]: 8.8 10^6 /mm^3
WBC, Early Time [15]: 3.3 10^3 /mm^3
WBC, Late Time [15]: 3.7 10^3 /mm^3
inhibition of rabbit NHE3 (rabbit NHE3): inhibit rabbit NHE3
inhibition of rabbit NHE3 (rabbit NHE3; listed as compound 1436): inhibitor of NHE3

CC(COS(=O)(=O)O)C(=O)CC[C@@H](C)[C@H]1CC[C@H]2[C@@H]3[C@H](O)C[C@H]4C[C@@H](NCCCNCCCCN)CC[C@]4(C)[C@H]3CC[C@]12C (stereo partly drawn)
MIC (S. aureus): 8 µg/mL (≈ 12.5 µM)

CC(C)CCC[C@@H](C)[C@H]1CC[C@H]2[C@@H]3[C@H](O)C[C@H]4C[C@H](NCCCNCCCCN)CC[C@]4(C)[C@H]3CC[C@]12C [Compound 370]
Chick embryo diss. assay, Minimum Effective Concentration [1]: > 10 µg
minimal effective concentration (HM): 40 µg/mL
pharmacological response in tadpole (Xenopus tadpole): pharmacologic activity similar to that seen for FX 3
